Laboratory results: ChEMBL document CHEMBL1146784, “Human ACAT-1 and -2 inhibitory activities of saucerneol B, manassantin A and B isolated from Saururus chinensis” (Bioorg Med Chem Lett, 2004)
Blank lines part the entries; values can stand above or below the compound they belong to.

What was measured:
[1] = biological target: T1, Sterol O-acyltransferase 2 (Homo sapiens, UniProt O75908); experiment: (§1) Concentration required to inhibit Acyl coenzyme A:cholesterol acyltransferase 2
T1 sequence (O75908 whole entry): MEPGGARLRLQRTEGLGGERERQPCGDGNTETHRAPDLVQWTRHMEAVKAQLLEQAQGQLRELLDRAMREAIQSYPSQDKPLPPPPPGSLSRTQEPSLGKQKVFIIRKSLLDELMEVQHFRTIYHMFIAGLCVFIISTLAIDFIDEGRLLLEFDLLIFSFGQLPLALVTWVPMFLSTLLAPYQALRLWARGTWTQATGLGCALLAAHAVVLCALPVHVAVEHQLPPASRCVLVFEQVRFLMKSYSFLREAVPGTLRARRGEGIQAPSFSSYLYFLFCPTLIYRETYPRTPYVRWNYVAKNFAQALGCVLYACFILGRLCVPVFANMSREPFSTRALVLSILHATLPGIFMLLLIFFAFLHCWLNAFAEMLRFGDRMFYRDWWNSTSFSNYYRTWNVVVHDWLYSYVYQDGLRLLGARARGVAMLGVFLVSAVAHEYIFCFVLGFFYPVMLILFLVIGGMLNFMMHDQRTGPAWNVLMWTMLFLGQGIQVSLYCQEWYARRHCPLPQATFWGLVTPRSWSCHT

Mus musculus = organism: Mus musculus; experiment: Effect against body weight of mice when treated with 0.1% wt/wt diet of compound for 10 days; On day 0 =21.8 g; format: functional
[2] = biological target: T2, Sterol O-acyltransferase 2 (Homo sapiens) (UniProt O75908); experiment: as §1; settings: concentration not given here
T2 sequence (whole entry): T1 sequence (O75908 whole entry)

IC50 [1]: 39 µM
SMILES: COc1ccc(C(O)C(C)Oc2ccc([C@H]3O[C@H](c4ccc(OC(C)C(O)c5ccc(OC)c(OC)c5)c(OC)c4)[C@H](C)[C@H]3C)cc2OC)cc1OC (stereo partly drawn)

SMILES: CC(C)(Sc1cc(C(C)(C)C)c(O)c(C(C)(C)C)c1)Sc1cc(C(C)(C)C)c(O)c(C(C)(C)C)c1 [PROBUCOL]
Body weight (Mus musculus): 23.7 g

inhibition [2]: 32%
SMILES: COc1ccc(C(O)C(C)Oc2ccc([C@H]3O[C@H](c4ccc(OC(C)C(O)c5ccc6c(c5)OCO6)c(OC)c4)[C@H](C)[C@H]3C)cc2OC)cc1OC (stereo partly drawn)
